Test results reported in ChEMBL document CHEMBL1201862, “PubChem BioAssay data set” (2004).
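Briefly, cells in 96-well plates were exposed to five compound concentrations for 48 h, and endpoints were estimated by linear interpolation. GI50: concentration for 50% inhibition of growth.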 Calls of active or inactive are those of the source. Rule as the data show it: active = GI50 up to about 1.1 µM and inactive = higher.

Legend:
Test in all cases: growth of human tumour cells (NCI), 48 h
[1] = test system: T47D
[2] = test system: SK-MEL-28
[3] = test system: OVCAR-4
[4] = test system: OVCAR-5
[5] = test system: NCI-H23
[6] = test system: OVCAR-3
[7] = test system: 786-0
[8] = test system: SNB-75
[9] = test system: RPMI-8226
[10] = test system: A498
[11] = test system: UO-31
[12] = test system: NCI-H226
[13] = test system: SF-295
[14] = test system: COLO 205
[15] = test system: RXF 393
[16] = test system: KM12
[17] = test system: SK-MEL-5
[18] = test system: OVCAR-8
[19] = test system: HT-29
[20] = test system: UACC-257

SMILES	GI50 [1]	GI50 [2]	GI50 [3]	GI50 [4]	GI50 [5]	GI50 [6]	GI50 [7]	GI50 [8]	GI50 [9]	GI50 [10]	GI50 [11]	GI50 [12]	GI50 [13]	GI50 [14]	GI50 [15]	GI50 [16]	GI50 [17]	GI50 [18]	GI50 [19]	GI50 [20]
CC1=CSC(O)(c2ccc(Cl)cc2)c2noc(=O)n21 (stereo unspecified)	54.8 µM (inactive)	29.2 µM (inactive)	> 100 µM (inactive)	> 100 µM (inactive)	48.4 µM (inactive)	72.1 µM (inactive)	> 100 µM (inactive)	61.7 µM (inactive)	57.7 µM (inactive)	> 100 µM (inactive)	58.1 µM (inactive)	> 100 µM (inactive)	> 100 µM (inactive)	> 100 µM (inactive)	71.6 µM (inactive)	> 100 µM (inactive)	59.6 µM (inactive)	97.7 µM (inactive)	> 100 µM (inactive)	24.4 µM (inactive)
CCc1ncc(CO)n1Cc1cccc2ccccc12	77.3 µM (inactive)	> 100 µM (inactive)	> 100 µM (inactive)	> 100 µM (inactive)	> 100 µM (inactive)	> 100 µM (inactive)	> 100 µM (inactive)	31.3 µM (inactive)	73.3 µM (inactive)	> 100 µM (inactive)	> 100 µM (inactive)	> 100 µM (inactive)	53.1 µM (inactive)	> 100 µM (inactive)	> 100 µM (inactive)	98.2 µM (inactive)	> 100 µM (inactive)	> 100 µM (inactive)	96.8 µM (inactive)	81.8 µM (inactive)
Cc1ccc(-c2c3c(n(C4OC(CO)C(O)C(O)C4O)c(=S)c2C#N)CC(C)(C)CC3=O)cc1 (stereo unspecified)	34.4 µM (inactive)	52.2 µM (inactive)	> 100 µM (inactive)	> 100 µM (inactive)	> 100 µM (inactive)	> 100 µM (inactive)	47.4 µM (inactive)	49.1 µM (inactive)	32.7 µM (inactive)	> 100 µM (inactive)	60 µM (inactive)	48.6 µM (inactive)	> 100 µM (inactive)	> 10 µM (inactive)	> 100 µM (inactive)	> 100 µM (inactive)	34.6 µM (inactive)	71.9 µM (inactive)	33.1 µM (inactive)	> 100 µM (inactive)
O=C(/C=C/c1ccc(OCC(=O)N2CCN(c3ccccc3)CC2)cc1)c1ccc(Cl)cc1	52.7 µM (inactive)	> 100 µM (inactive)	32.6 µM (inactive)	> 100 µM (inactive)	50.4 µM (inactive)	> 92 µM (inactive)	22 µM (inactive)	12 µM (inactive)	> 100 µM (inactive)	23.4 µM (inactive)	> 71 µM (inactive)	50.8 µM (inactive)	18.6 µM (inactive)	> 100 µM (inactive)	21.9 µM (inactive)	> 100 µM (inactive)	54.2 µM (inactive)	45.9 µM (inactive)	> 100 µM (inactive)	> 72.4 µM (inactive)
CC1(C)OC(=O)N(c2ccccc2)C12C=Cc1cccc([N+](=O)[O-])c1O2 (stereo unspecified)	43.4 µM (inactive)	90.8 µM (inactive)	56.2 µM (inactive)	> 100 µM (inactive)	55.3 µM (inactive)	> 100 µM (inactive)	> 100 µM (inactive)	35.6 µM (inactive)	53.3 µM (inactive)	50.2 µM (inactive)	45.3 µM (inactive)	> 100 µM (inactive)	55.1 µM (inactive)	45.1 µM (inactive)	> 100 µM (inactive)	58.6 µM (inactive)	72.8 µM (inactive)	92.7 µM (inactive)	98.9 µM (inactive)	47.6 µM (inactive)
COc1ccc(C2OC(c3ccncc3)=NN2C)cc1F (stereo unspecified)	> 100 µM (inactive)	> 100 µM (inactive)	> 100 µM (inactive)	> 100 µM (inactive)	> 100 µM (inactive)	> 100 µM (inactive)	> 100 µM (inactive)		> 100 µM (inactive)	> 100 µM (inactive)	> 100 µM (inactive)	> 100 µM (inactive)	> 100 µM (inactive)	> 100 µM (inactive)	> 100 µM (inactive)	> 100 µM (inactive)	> 100 µM (inactive)	> 100 µM (inactive)	> 100 µM (inactive)	> 100 µM (inactive)
O=C1OC(c2ccccc2)=N/C1=C\c1cccc(F)c1	> 100 µM (inactive)	96.6 µM (inactive)	31.3 µM (inactive)	> 100 µM (inactive)	> 100 µM (inactive)	37 µM (inactive)	51.9 µM (inactive)	64.3 µM (inactive)	19.7 µM (inactive)	> 100 µM (inactive)	> 100 µM (inactive)	25.9 µM (inactive)	40.8 µM (inactive)	> 100 µM (inactive)	> 100 µM (inactive)	33.5 µM (inactive)	51.4 µM (inactive)	26.2 µM (inactive)	> 100 µM (inactive)	32.7 µM (inactive)
Cc1cc(=O)oc2cc(OC(=O)Nc3ccc(Cl)c(Cl)c3)ccc12	12 µM (inactive)	25.4 µM (inactive)	41.3 µM (inactive)	20.4 µM (inactive)	20.7 µM (inactive)	13 µM (inactive)	38.8 µM (inactive)	25.2 µM (inactive)	9.29 µM (inactive)	14.2 µM (inactive)	27.4 µM (inactive)	20.3 µM (inactive)	20.9 µM (inactive)	32.4 µM (inactive)	14.3 µM (inactive)	27.1 µM (inactive)	16.1 µM (inactive)	20.2 µM (inactive)	25.2 µM (inactive)	30.8 µM (inactive)
CCCC[C@@H](C)/C=C1\CN2CCC[C@H]2[C@@](C)(OCc2ccccc2)[C@@H]1O	8.79 µM (inactive)	> 43 µM (inactive)	> 50 µM (inactive)	> 50 µM (inactive)	> 50 µM (inactive)	> 17.5 µM (inactive)	> 47.4 µM (inactive)	> 32.3 µM (inactive)	> 15.5 µM (inactive)	> 47.8 µM (inactive)	> 13.2 µM (inactive)	> 50 µM (inactive)	> 50 µM (inactive)	> 50 µM (inactive)	> 44.6 µM (inactive)	> 13.8 µM (inactive)	> 50 µM (inactive)	> 47.4 µM (inactive)	> 50 µM (inactive)	> 17.6 µM (inactive)
CC(=O)c1sc2c(c1OC(=O)c1ccc(Cl)cc1)c(=O)n(-c1ccccc1)c(=S)n2-c1ccccc1	12.2 µM (inactive)	2.79 µM (inactive)	22.3 µM (inactive)	2.77 µM (inactive)	17.5 µM (inactive)	14.2 µM (inactive)	3.52 µM (inactive)	2.99 µM (inactive)	1.21 µM (inactive)	1.08 µM (active)	3.06 µM (inactive)	1.59 µM (inactive)	0.953 µM (active)	3.53 µM (inactive)	2.22 µM (inactive)	10.9 µM (inactive)	2 µM (inactive)	3.48 µM (inactive)	0.946 µM (active)	5.19 µM (inactive)
O=C(CCSC(CC(=O)c1ccc(Cl)cc1)c1ccc(Cl)cc1)Nc1ccc(Cl)cc1 (stereo unspecified)	6.03 µM (inactive)	15.4 µM (inactive)	14.7 µM (inactive)	16.4 µM (inactive)	16.3 µM (inactive)	14.1 µM (inactive)	13.8 µM (inactive)	21.8 µM (inactive)	2.19 µM (inactive)	12.4 µM (inactive)	14 µM (inactive)	20.3 µM (inactive)	9.44 µM (inactive)	18.6 µM (inactive)	14.9 µM (inactive)	3.21 µM (inactive)	15.9 µM (inactive)	14.9 µM (inactive)	9.23 µM (inactive)	15.7 µM (inactive)
CC1=CC(C)C(C)N(CCNS(=O)(=O)c2ccc(C)cc2)c2ccccc21 (stereo unspecified)	10.8 µM (inactive)	12.9 µM (inactive)	13.3 µM (inactive)	18.7 µM (inactive)	13.6 µM (inactive)	12.5 µM (inactive)	14.2 µM (inactive)	15.7 µM (inactive)	12.2 µM (inactive)	14.6 µM (inactive)	16.5 µM (inactive)	12.3 µM (inactive)	13.8 µM (inactive)	12.8 µM (inactive)	12.1 µM (inactive)	19.1 µM (inactive)	> 10 µM (inactive)	14.6 µM (inactive)	12.5 µM (inactive)	16.1 µM (inactive)
O=c1ccn([C@@H]2C[C@@H]2CO)c(=O)[nH]1	> 100 µM (inactive)	> 100 µM (inactive)	> 100 µM (inactive)	> 100 µM (inactive)	> 100 µM (inactive)		> 100 µM (inactive)	> 100 µM (inactive)	> 100 µM (inactive)	> 100 µM (inactive)	> 100 µM (inactive)	> 100 µM (inactive)		> 100 µM (inactive)	> 100 µM (inactive)	> 100 µM (inactive)	> 100 µM (inactive)	> 100 µM (inactive)	> 100 µM (inactive)	> 100 µM (inactive)
O=C1c2ccccc2-n2c1nc1ccc([N+](=O)[O-])cc1c2=O	25.9 µM (inactive)	55.1 µM (inactive)	> 10 µM (inactive)	> 100 µM (inactive)	48.2 µM (inactive)	21.1 µM (inactive)	46.5 µM (inactive)		25.2 µM (inactive)	5.62 µM (inactive)	42.9 µM (inactive)	25.6 µM (inactive)	24.1 µM (inactive)	> 100 µM (inactive)	60.4 µM (inactive)	68.9 µM (inactive)	95.9 µM (inactive)	21.3 µM (inactive)	> 10 µM (inactive)	89.7 µM (inactive)
